Experimental data: patent publication US20070098900A1, “Media providing non-contacting formation of high contrast marks and method of using same, composition for forming a laser-markable coating, a laser-markable material and process of forming a marking” (FUJI HUNT PHOTOGRAPHIC CHEMICALS, INC., priority 2004, published 2007)

assay: Solubility of electron donor dye precursors in ethyl acetate; assay type: physicochemical
Description: For reference, the following Table 1 lists electron donor dye precursor compounds, and includes the corresponding solubility in ethyl acetate, which are used in the following examples.

Row | SMILES | Solubility in ethyl acetate
1 | CCN(CC)c1ccc2c(c1)Oc1cc(C)ccc1C21OC(=O)c2ccccc21 [Sample D-2] | 5 g/100 grams
2 | CCN(CC)c1ccc2c(c1)Oc1cc(C)c(Nc3ccccc3)cc1C21OC(=O)c2ccccc21 [Sample D-3] | 4 g/100 grams
3 | CCCCCCOc1ccc2c(c1)Oc1cc(OCCCCCC)ccc1C21OC(c2cccs2)=Nc2ccccc21 [Sample D-5] | 20 g/100 grams
